From patent US6379713B1, “Method of treating an itch with iodine” (priority 2001, dated 2002)

How the values were obtained:
itch = conditions: cited from earlier work; for time necessary to stop the immediate itch: topical application
itching skin = experiment: rubbing iodine condensate on cotton fiber against itching skin; type: in vivo, mammal
Procedure: A concentration of iodine in the range of 0.01 to 2 mg/inch^2 of skin surface is found to provide analgesia. An applicator useful for carrying and discharging the analgesic element, in its amorphous form, has been made by loading cotton fiber over a bed of hard iodine crystals sitting at the bottom of a fuming chamber. The bottom of the fiber stack is placed in contact to the top of the iodine bed. By warming the crystals, the reservoir fiber is charged with a fine, soft, rising tan colored sublimate of the hard crystal. At a temperature of 35.deg.C., 2 days is sufficient to charge a fiber with sublimated iodine in a range, by weight, of 1 to 30 mg/g of the wipe fiber. The charged fiber has a tan color, appearing as of having been dipped in liquid iodophor and then dried. Individual crystals of iodine are not readily observed and the charged wipe feels softer than the original fiber. On dipping the charged fiber in water, its tan coloration disappears.
Itching skin is found to be efficiently treated by rubbing the cotton fiber coated with condensed iodine against the itch.
The skin is not irritated by treatment from a wipe preferably comprising about 10 mg of condensate per gram of fiber comprising cotton. […] A preferred treatment supplies about 0.05 to 1 mg/inch^2 of skin. An iodine concentration of over 2 mg/inch^2 of skin begins to cause pain, while still relieving the itch.

SMILES: CCOC(=O)c1ccc(N)cc1 [benzocaine]
- time necessary to stop the immediate itch (itch): ≤ 5 min

SMILES: CN(C)CCOC(c1ccccc1)c1ccccc1 [diphenhydramine]
- time necessary to stop the immediate itch (itch): about 15 minutes

SMILES: COC1=CC(=O)C[C@@H](C)[C@]12Oc1c(Cl)c(OC)cc(OC)c1C2=O [griseofulvin]
- time necessary to stop the immediate itch (time to disinfect) (itch; antibiotic composition): several days

SMILES: CC(=O)OCC(=O)[C@@]1(O)CC[C@H]2[C@@H]3CCC4=CC(=O)CC[C@]4(C)[C@H]3[C@@H](O)C[C@@]21C [hydrocortisone acetate]
- time necessary to stop the immediate itch (itch): about 15 minutes

SMILES: II [iodine]
- time to relief from an itch after application (itching skin; amorphous tan condensate, single treatment): ≤ 1 min
- time to relieve the urge to scratch after application (itching skin; cotton fiber coated with condensed iodine, rubbed in forceful back and forth motion): within three minutes
- iodine concentration on skin that begins to cause pain (itching skin; while still relieving the itch): over 2 mg/inch^2
- skin irritation (itching skin; wipe with about 10 mg of condensate per gram of cotton fiber): not irritated
